From PMC6026066 (Nature, 2018)

Experiments:
PV RdRp = PV RdRp (Human poliovirus 1 Mahoney, UniProt P03300); type: biochemical
Hs viperin = target: T1, Hs viperin (Homo sapiens, UniProt Q8WXG1); assay: LC/MS of extracts of transfected HEK293T cells; type: cell-based; conditions: endogenous CTP and SAM; vector control
T1 sequence (Q8WXG1 1-361): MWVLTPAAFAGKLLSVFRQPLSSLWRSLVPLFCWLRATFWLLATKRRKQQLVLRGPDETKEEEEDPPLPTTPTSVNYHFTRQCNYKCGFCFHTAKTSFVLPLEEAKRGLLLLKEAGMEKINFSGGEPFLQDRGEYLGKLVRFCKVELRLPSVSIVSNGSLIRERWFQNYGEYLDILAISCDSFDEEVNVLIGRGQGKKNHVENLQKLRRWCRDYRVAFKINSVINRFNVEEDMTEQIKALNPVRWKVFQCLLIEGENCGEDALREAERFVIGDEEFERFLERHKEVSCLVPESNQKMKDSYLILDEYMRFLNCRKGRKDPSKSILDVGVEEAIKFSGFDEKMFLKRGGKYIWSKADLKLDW

DV RdRp = DV RdRp (Dengue virus 2 Peru/IQT2913/1996, UniProt Q9WDA6); assay: primer extension RNA synthesis, denaturing PAGE; type: biochemical; conditions: 0.1 μM CTP; competes with CTP; incorporated as chain terminator
WNV RdRp = WNV RdRp (West Nile virus strain NY-99, UniProt Q9Q6P4); assay: primer extension RNA synthesis, denaturing PAGE; type: biochemical
HRV-C RdRp = target: T2, HRV-C RdRp (rhinovirus C15, UniProt E5D8F2); assay: primer extension RNA synthesis, denaturing PAGE; type: biochemical
T2 sequence (E5D8F2 1694-2153): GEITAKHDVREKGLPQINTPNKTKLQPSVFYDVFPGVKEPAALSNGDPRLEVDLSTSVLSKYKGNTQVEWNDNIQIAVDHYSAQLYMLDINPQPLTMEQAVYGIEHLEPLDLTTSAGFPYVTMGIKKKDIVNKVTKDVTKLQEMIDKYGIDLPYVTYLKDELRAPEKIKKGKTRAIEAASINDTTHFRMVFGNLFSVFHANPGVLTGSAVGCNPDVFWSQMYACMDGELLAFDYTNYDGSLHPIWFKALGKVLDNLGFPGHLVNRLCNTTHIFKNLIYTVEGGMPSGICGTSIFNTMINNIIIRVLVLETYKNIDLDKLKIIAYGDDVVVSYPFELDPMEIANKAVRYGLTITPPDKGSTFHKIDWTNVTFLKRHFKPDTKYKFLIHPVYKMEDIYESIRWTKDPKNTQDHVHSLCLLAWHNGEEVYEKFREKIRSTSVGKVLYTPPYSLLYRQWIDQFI

Hs CMPK2 [1] = target: T3, Hs CMPK2 (Homo sapiens, UniProt Q5EBM0); assay: kinase assay, UTP formation; type: biochemical; conditions: 1 mM UDP; phosphate donor ATP or GTP; 5 μM enzyme
T3 sequence (Q5EBM0 99-449): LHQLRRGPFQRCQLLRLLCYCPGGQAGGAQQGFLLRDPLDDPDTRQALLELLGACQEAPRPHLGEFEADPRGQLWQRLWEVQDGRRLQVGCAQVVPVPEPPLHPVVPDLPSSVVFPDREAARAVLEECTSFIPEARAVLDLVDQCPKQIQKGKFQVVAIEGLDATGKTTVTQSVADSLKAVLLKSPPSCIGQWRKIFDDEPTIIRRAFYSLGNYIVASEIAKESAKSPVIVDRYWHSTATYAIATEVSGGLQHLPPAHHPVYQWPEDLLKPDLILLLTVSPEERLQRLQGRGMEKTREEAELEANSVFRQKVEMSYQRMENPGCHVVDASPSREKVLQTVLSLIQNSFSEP

Hs CMPK2 [2] = target: T3, Hs CMPK2; assay: kinase assay, CTP formation; type: biochemical; conditions: 1 mM CDP; phosphate donor ATP or GTP; 5 μM enzyme

PV RdRp, sequence (P03300 1749-2209 limits assumed): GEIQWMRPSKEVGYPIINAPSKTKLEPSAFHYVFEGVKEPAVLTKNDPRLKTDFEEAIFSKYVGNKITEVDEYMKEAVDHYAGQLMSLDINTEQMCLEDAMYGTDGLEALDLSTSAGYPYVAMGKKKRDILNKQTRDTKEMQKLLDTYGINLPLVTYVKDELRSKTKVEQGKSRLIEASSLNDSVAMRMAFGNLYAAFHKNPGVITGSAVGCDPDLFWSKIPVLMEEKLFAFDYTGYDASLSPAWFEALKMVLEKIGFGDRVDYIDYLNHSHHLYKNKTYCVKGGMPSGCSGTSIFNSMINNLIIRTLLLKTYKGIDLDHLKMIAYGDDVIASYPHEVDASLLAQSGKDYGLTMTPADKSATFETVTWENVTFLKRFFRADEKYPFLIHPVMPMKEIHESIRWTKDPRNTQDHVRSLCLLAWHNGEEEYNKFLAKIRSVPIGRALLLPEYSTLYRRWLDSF
DV RdRp, sequence (Q9WDA6 2492-3391): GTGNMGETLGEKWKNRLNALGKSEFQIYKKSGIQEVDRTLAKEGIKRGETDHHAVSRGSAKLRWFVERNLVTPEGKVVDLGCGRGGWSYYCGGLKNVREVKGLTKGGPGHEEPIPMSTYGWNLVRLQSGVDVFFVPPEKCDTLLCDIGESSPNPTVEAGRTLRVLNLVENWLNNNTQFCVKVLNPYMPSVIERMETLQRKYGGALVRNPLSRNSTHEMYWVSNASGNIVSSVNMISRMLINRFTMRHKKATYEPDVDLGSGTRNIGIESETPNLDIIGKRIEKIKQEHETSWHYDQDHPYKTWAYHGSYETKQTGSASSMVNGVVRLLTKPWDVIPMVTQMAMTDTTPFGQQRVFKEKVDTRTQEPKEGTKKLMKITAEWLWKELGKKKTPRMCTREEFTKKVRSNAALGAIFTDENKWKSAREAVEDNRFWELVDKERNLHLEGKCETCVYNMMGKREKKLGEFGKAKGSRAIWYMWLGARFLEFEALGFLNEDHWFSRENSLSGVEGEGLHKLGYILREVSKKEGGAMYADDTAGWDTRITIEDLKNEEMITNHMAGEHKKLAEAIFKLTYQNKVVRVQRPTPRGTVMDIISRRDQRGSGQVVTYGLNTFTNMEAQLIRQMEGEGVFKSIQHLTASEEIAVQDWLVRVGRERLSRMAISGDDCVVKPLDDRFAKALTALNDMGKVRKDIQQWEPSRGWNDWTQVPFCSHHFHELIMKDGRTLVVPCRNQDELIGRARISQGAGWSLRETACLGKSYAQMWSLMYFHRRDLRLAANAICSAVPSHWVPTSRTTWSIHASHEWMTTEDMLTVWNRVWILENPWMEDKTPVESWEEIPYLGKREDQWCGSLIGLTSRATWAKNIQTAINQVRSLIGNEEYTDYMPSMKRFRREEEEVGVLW
WNV RdRp, sequence (Q9Q6P4 2529-3433): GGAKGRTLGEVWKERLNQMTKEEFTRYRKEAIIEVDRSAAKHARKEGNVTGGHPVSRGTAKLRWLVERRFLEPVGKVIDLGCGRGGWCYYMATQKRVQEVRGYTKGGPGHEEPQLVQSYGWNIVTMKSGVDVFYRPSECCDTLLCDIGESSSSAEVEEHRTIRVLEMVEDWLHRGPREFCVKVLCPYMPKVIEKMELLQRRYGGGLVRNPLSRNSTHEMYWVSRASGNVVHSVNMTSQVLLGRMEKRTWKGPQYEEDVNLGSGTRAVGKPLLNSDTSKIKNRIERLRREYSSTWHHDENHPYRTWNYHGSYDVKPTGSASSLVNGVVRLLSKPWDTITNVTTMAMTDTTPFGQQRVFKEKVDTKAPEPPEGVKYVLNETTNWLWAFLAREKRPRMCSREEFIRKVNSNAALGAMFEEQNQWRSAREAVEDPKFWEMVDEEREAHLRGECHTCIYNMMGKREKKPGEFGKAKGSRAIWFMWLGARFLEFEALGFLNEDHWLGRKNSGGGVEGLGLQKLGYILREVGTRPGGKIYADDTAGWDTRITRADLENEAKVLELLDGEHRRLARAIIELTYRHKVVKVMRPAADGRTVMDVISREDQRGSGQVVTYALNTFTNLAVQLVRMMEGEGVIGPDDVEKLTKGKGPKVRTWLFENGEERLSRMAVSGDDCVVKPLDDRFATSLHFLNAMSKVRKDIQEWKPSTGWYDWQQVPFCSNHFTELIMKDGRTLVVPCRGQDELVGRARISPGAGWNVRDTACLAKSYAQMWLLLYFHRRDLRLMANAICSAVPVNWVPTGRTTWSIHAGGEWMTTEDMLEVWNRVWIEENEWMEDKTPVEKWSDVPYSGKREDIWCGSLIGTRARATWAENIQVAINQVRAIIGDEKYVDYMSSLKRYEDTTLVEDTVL

Nc1ccn([C@@H]2OC(COP(=O)(O)OP(=O)(O)OP(=O)(O)O)=C[C@H]2O)c(=O)n1 [ddhCTP]
primer extension RNA synthesis, denaturing PAGE (PV RdRp): both HRV-C and PV RdRp were poorly inhibited by ddhCTP | LC/MS of extracts of transfected HEK293T cells (Hs viperin): HEK293T cells transfected with the Hs viperin plasmid exhibited considerable intracellular ddhCTP levels | IC50 (DV RdRp): 60 ± 10 µM | IC50 (WNV RdRp): 20 ± 10 µM | IC50 (HRV-C RdRp): 900 ± 300 µM

Nc1ccn([C@@H]2O[C@H](COP(=O)(O)OP(=O)(O)OP(=O)(O)O)C[C@H]2O)c(=O)n1 [3′-dCTP]
IC50 (HRV-C RdRp): 5 ± 1 µM

O=c1ccn([C@@H]2O[C@H](COP(=O)(O)OP(=O)(O)O)[C@@H](O)[C@H]2O)c(=O)[nH]1 [UDP]
kinase assay, UTP formation (Hs CMPK2 [1]): Hs CMPK2 exhibits significant preference for CDP and UDP as substrates

Nc1ccn([C@@H]2O[C@H](COP(=O)(O)OP(=O)(O)O)[C@@H](O)[C@H]2O)c(=O)n1 [CDP]
kinase assay, CTP formation (Hs CMPK2 [2]): Hs CMPK2 exhibits significant preference for CDP and UDP as substrates
